Experimental data from patent US6248718A, “Lesion-directed dry dosage forms of antibacterial agents for the treatment of acute mucosal infections of the oral cavity” (priority 1999, dated 2001).
Entries after “also recorded” stand apart in the source; their conditions may differ.

Assays:
[1] = Topical dry dosage treatment of minor aphthous ulcers, gingivitis and periodontal infections; format: in vivo, human; conditions: 50 mg dry dosage form, four times a day
From the text: The administration of the medicament depends upon the type of infection to be treated and the type and dosage of the antibacterial agent used. The appropriate antibacterial agent, dosage and treatment regimen can readily be determined by someone having ordinary skill in this art. […] Thorough tooth cleaning is advised prior to introduction of the medicament to an infected area.

[2] = system: bacteria in saliva of healthy volunteers; experiment: Inhibition of bacterial growth in the saliva in vivo (Example V); conditions: for bacterial colonies from saliva after topical medication: 1 hour, 0.1 ml saliva
Protocol: Five healthy adult volunteers, three men and two women, were asked to refrain from drinking or eating for two hours after breakfast. At the end of two hours, an aliquot of 0.1 ml of saliva was pipetted from the mouth of each volunteer and spread over the surface of a sheep blood agar plate with a sterile plastic loop. The inoculated blood agar plate was incubated in an aerobic atmosphere containing 5% CO2 as pre-medication control. Then 100 mg, 50 mg, 20 mg, 10 mg and 2 mg of penicillin G potassium dry powder, USP grade, were placed in the right buccal pouch with a spatula between the cheek and the lower gum of each volunteer, respectively. The volunteers were asked to retain the dissolved penicillin powder at the site of medication as concentrated as possible, not to be diluted by saliva from other parts of the mouth for one hour.
At the end of one hour, 0.1 ml of saliva from each volunteer was pipetted from the right buccal pouch where the medication was placed, and inoculated and spread onto the surface of a sheep blood agar plate. The inoculum was spread with a sterile plastic loop.

[3] = system: Staphylococcus aureus ATCC 29213; experiment: MIC for standard strain used in saliva antibiotic assay (Examples VII-IX); format: cell-based; conditions: Staphylococcus aureus, ATCC29213; nutrient broth, 37° C., 18 hours
Protocol: Each filtered mixture in test tube was inoculated with 0.1 ml of a 1:1,000 dilution of a 12 hour broth culture of Staphylococcus aureus ATCC 29213.
A row of 6 test tubes each containing 2 ml of nutrient broth with decreasing concentrations of penicillin G potassium from 6.2 to 0.16 mcg/ml, using a serial double dilution method described in a., was prepared and similarly inoculated with 0.1 ml broth culture of Staphylococcus aureus ATCC 29213 as the standard.
All test tubes were incubated at 37° C. for 18 hours and observed for bacterial growth against an inoculated broth containing neither antibiotic nor saliva samples.
In this study, the drug powder was suspended in one teaspoonful of water and swallowed by the test subjects two hours after breakfast, followed by drinking an 8 Oz. glass of water. The test subjects refrained from drinking or eating for the next three hours. Six samples of saliva were collected from each subject at 30-minute intervals in succession in the next three hours. An aliquot of 0.2 ml from each saliva sample was transferred to 3.8 ml of nutrient broth. The mixture of the latter was forced to pass a bacterial filter. Two (2) ml of the bacteria-free filtrate was pipetted out into a sterile test tube and inoculated with 0.1 ml of a 1:1,000 dilution of a 12 hours broth culture of Staphylococcus aureus ATCC 29213 and incubated at 37° C. for 18 hours. […]

bacteria in human saliva = experiment: Inhibition of bacterial growth in human saliva in vitro (Example IV); format: cell-based; conditions: for bacterial growth from treated saliva: 1 h, aerobic blood agar
Protocol: For this study, five healthy adult volunteers, three men and two women, were asked to refrain from drinking and eating for two hours after breakfast. At the end of two hours, about five (5) ml of saliva was obtained from the oral cavity of each volunteer. Aliquots of 0.1 ml of saliva were pipetted immediately from each saliva sample and spread over the surface of two 5% sheep blood agar plates with a sterile plastic loop. One inoculated blood agar plate was incubated in an aerobic atmosphere containing 5% CO2, and the other anaerobically at 37° C. for 18 hours, as untreated controls.
Aliquots of 0.2 ml of the saliva from each volunteer's sample were pipetted into sterile test tubes, and labeled from No. 2 to No. 13. Five equal doses of dry powder of the USP grade penicillin G potassium salt, 200 mg each, were weighed and put into five sterile test tubes, all labeled No. 1. The dry powder of antibiotic was dissolved in 0.4 ml saliva obtained from each of the five volunteers to constitute an initial concentration of antibiotic concentration of […] in saliva. An aliquot of 0.2 ml of the saliva antibiotic solution was pipetted from tube No. 1 into tube No. 2. After having been thoroughly mixed, 0.2 ml of the content in tube No. 2 was pipetted to tube No. 3, and so forth continuously in succession to make a serial double dilution of penicillin G potassium solutions in saliva through tube No. 13. Finally, the test tubes contained different concentrations of penicillin G potassium in the saliva of five volunteers, as follows.
The mixtures of antibiotic and saliva in the test tubes were incubated at 37° C. One hour later, an aliquot of 0.1 ml was pipetted from the content of each tube, first dropped in the center of a blood agar plate and then spread to the periphery of the plate surface. The plates were incubated aerobically at 37° C. with 5% carbon dioxide in the atmosphere for 18 hours and were examined for bacterial growth.

CC1(C)S[C@@H]2[C@H](NC(=O)Cc3ccccc3)C(=O)N2[C@H]1C(=O)O [penicillin G potassium]
patients with complete relief of pains within about 48 hours [1]: over 90%
time to complete relief of pains [1]: ≤ 48 h
bacterial colonies from saliva after topical medication ([2]; 2 mg powder): a few isolated bacterial colonies; also recorded: partial inhibition of growth
bacterial colonies from saliva after topical medication ([2]; 10 mg powder): no bacterial colonies
bacterial colonies from saliva after topical medication ([2]; 20 mg powder): no bacterial colonies
bacterial colonies from saliva after topical medication ([2]; 50 mg powder): no bacterial colonies
bacterial colonies from saliva after topical medication ([2]; 100 mg powder): no bacterial colonies
dose required for total cessation of bacterial growth in small pocket of saliva ([2]; powder, one-hour medication): at least 10 mg
MIC [3]: 0.75 µg/mL
bacterial growth from treated saliva (bacteria in human saliva; 1 mg/ml): Scattered bacterial colonies began to appear; also recorded: the inhibition is not complete; also recorded: A few surviving or uninhibited bacteria grew into colonies
bacterial growth from treated saliva (bacteria in human saliva; 2 mg/ml or above): No bacterial colonies were visible; also recorded: practically inhibits the growth of all of the salivary bacteria; also recorded: either destroyed or totally inhibited
MIC (bacteria in human saliva; Homo sapiens, read-out: concentration sufficient to kill or inhibit practically all salivary bacteria): 1000 to 2000 µg/mL
